“Also recorded” adds a separate entry of the source.
Assays:
[1] = system: menin-expressing MEF cells; experiment: Cell growth of menin-expressing MEFs; format: cell-based, mouse; details: increasing concentrations from day 1; counted after six days of treatment
Method: (§1) FIG. 15. Menin inhibition antagonizes menin mediated suppression of cell proliferation. […] Vector and menin-expressing MEFs (inset) were seeded at 0.25×10^6 cells/10 cm dish on day 0, treated with either DMSO or increasing concentrations of MI-2-2 from day 1 as indicated, and counted after six days of treatment.
(§2) Vector and menin-expressing MEFs (FIG. 15, inset) were seeded at 0.25×10^6 cells/10 cm dish on day 0, treated with either DMSO or increasing concentrations of MI-2-2 from day 1 as indicated, and counted after six days of treatment. Thus, inhibition of menin antagonizes menin mediated suppression of cell proliferation.

[2] = system: menin-null (vector) MEF cells; experiment: Cell growth of menin-null (vector) MEFs; format: cell-based, mouse; details: increasing concentrations from day 1; counted after six days of treatment
Method: as §1, §2

[3] = system: murine islets; experiment: Proliferation (Ki67) in isolated murine islets; format: cell-based, C57BL/6J mice
Description: FIG. 14. Menin inhibitor (MI-2-2) increases proliferation in murine islets, as evidenced by increased number of cells positive for the proliferation marker Ki67. […] Isolated murine islets were pre-cultured for one day before treatment with drug or vehicle.
The ability of MI-2-2 to stimulate cell growth was further tested in murine islets isolated from C57BL/6J mice (Jackson Laboratories, Bar Harbor, Me.).

[4] = system: GLP1 receptor; experiment: GLP1 receptor expression in human islets (real time quantitative PCR); format: cell-based; details: 50 nM, 200 nM or 500 nM for 2 days, vs DMSO
Method: FIG. 16. Menin inhibition increases expression of the GLP1 receptor Human islets were cultured in a humidified incubator with 5% CO2 at 37° C. After 24 hours, the islets were treated with vehicle control (DMSO) or varying concentrations of MI-2-2 (50 nM, 200 nM or 500 nM) for 2 days. The islets were harvested and. RNA was isolated and was reverse transcribed to cDNA. cDNA was quantitated by real time quantitative PCR and normalized using β-actin as endogenous control.
Menin inhibition also increases expression of GLP1 receptor, which is the receptor mediating the pro-islet incretin's ability to reduce blood glucose (FIG. 16). Human islets were procured from the Islet Transplantation Center, University of Pennsylvania and cultured in a humidified incubator with 5% CO2 at 37° C. After 24 hours, the islets were treated with vehicle control (DMSO) or varying concentrations of MI-2-2 (50 nM, 200 nM or 500 nM) for 2 days. […] RNA was isolated using the RNeasy Mini Kit (Qiagen, Germantown, Md.) and was reverse transcribed to cDNA using the SuperScript® III Reverse Transcriptase (Life Technologies, Grand Island, N.Y.). cDNA was quantitated by real time quantitative PCR using QuantiTect SYBR® Green (Qiagen, Germantown, Md.) on a 7500 Fast Real time PCR system (AppliedBiosystems, Life Technologies, Grand Island, N.Y.) and normalized using β-actin as endogenous control.

SMILES: CC1(C)CN=C(N2CCN(c3ncnc4sc(CC(F)(F)F)cc34)CC2)S1 [MI-2-2]
- cell growth of menin-expressing MEFs [1]: increased cell growth in menin MEFs in a concentration dependent manner; also recorded: increases proliferation of menin-expressing MEF cells
- cell growth of menin-null (vector) MEFs [2]: did not do so in vector MEFs; also recorded: not menin-null (vector) cells
- Ki67 staining in murine islets ([3]; 500 nM for two days, compared with vehicle control): increased Ki67 staining
- Ki67 positive cells per unit area in murine islets ([3]; treatment for 2 days, concentration dependence): increased the number of proliferating cells in a concentration dependent manner; also recorded: dose dependent increase
- expression of GLP1 receptor relative to β-actin expression [4]: about 2 fold
